Experimental data taken from patent US20230293526A1, “METHOD FOR TREATING CANCER WITH A REVERSE TRANSCRIPTASE INHIBITOR” (PrimeFour Therapeutics, Inc., priority 2020, published 2023).

Assays:
[1] = system: human LINE-1; experiment: Human LINE-1 (L1) retrotransposition dual-luciferase reporter assay in HeLa cells; assay type: cell-based; conditions: Homo sapiens, HeLa, 72 h, read-out: Human LINE-1 IC50 (Human L1 activity inhibition)
Method in brief: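 HeLa cells transfected with dual-luciferase L1 plasmid pYX017 (100 ng/well), dosed immediately after with serially diluted compounds (0.2% DMSO final) in triplicate and incubated 72 h at 37 °C. Relative L1 activity = Firefly/Renilla ×10,000; IC50 from logistic non-linear regression.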

[2] = system: cancer cell lines; experiment: Cancer cell proliferation activity of representative nucleosides, CellTiterGlo 72 h (Example 7, Tables 8 and 9); assay type: cell-based; conditions: 72 h
Method in brief: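 Cancer cell lines seeded and incubated at 37° C overnight, then exposed to nucleosides (final DMSO 0.1%) for 72 h at 37° C with 5% or 10% CO2. Viability read by CellTiterGlo luminescence and normalized to 0.1% DMSO (100%) and 10 μM staurosporine (0%) controls.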

CC[C@]1(CO)O[C@@H](n2ccc(N)nc2=O)C[C@@H]1O [compound 21, 4-amino-1-((2R,4S,5R)-5-ethyl-4-hydroxy-5-(hydroxymethyl)tetrahydrofuran-2-yl)pyrimidin-2(1H)-one]
IC50 [1]: 0.043 µM
IC50 ([2]; 72 h, 5637, bladder): > 50 µM
IC50 ([2]; CLS439, bladder): > 50 µM
IC50 ([2]; HS729, muscle): > 50 µM
IC50 ([2]; J82, bladder): > 50 µM
IC50 ([2]; JAR, placenta): > 50 µM
IC50 ([2]; MT3, breast): 3.29 µM
IC50 ([2]; PC3, prostate): > 50 µM
IC50 ([2]; RD, muscle): > 50 µM
IC50 ([2]; T24, bladder): 3.46 µM
IC50 ([2]; Homo sapiens, 22Rv1, 72 h, 22RV1, prostate): > 50 µM
IC50 ([2]; Homo sapiens, 786-0, 72 h, 786O, kidney): > 50 µM
IC50 ([2]; Homo sapiens, A204, 72 h, A204, muscle): 0.27 µM
IC50 ([2]; Homo sapiens, A549, 72 h, A549, lung): 5.54 µM
IC50 ([2]; Homo sapiens, A673, 72 h, A673, bone): > 50 µM
IC50 ([2]; Homo sapiens, A2780, 72 h, A2780, ovary): > 50 µM
IC50 ([2]; Homo sapiens, A-375, 72 h, A375, skin): > 50 µM
IC50 ([2]; Homo sapiens, A-431, 72 h, A431, skin): > 50 µM
IC50 ([2]; Homo sapiens, ACHN, kidney): 2.74 µM
IC50 ([2]; Homo sapiens, ASPC1, 72 h, ASPC1, pancreas): > 50 µM
IC50 ([2]; Homo sapiens, BT-20, 72 h, BT20, breast): > 50 µM
IC50 ([2]; Homo sapiens, BXPC-3, 72 h, BXPC3, pancreas): > 50 µM
IC50 ([2]; Homo sapiens, C-33-A, C33A, endometrial): 6.53 µM
IC50 ([2]; Homo sapiens, CAKI-1, 72 h, CAKI1, kidney): 1.49 µM
IC50 ([2]; Homo sapiens, COLO 205, 72 h, COLO205, colon): 3.44 µM
IC50 ([2]; Homo sapiens, COLO-678, 72 h, COLO678, colon): > 50 µM
IC50 ([2]; Homo sapiens, Ca-Ski, CASKI, endometrial): > 50 µM
IC50 ([2]; Homo sapiens, Caco-2, 72 h, CACO2, colon): > 50 µM
IC50 ([2]; Homo sapiens, Calu-6, 72 h, CALU6, lung): > 50 µM
IC50 ([2]; Homo sapiens, DLD-1, 72 h, DLD1, colon): > 50 µM
IC50 ([2]; Homo sapiens, DU-145, 72 h, DU145, prostate): > 50 µM
IC50 ([2]; Homo sapiens, EFO-21, 72 h, EFO21, ovary): > 50 µM
IC50 ([2]; Homo sapiens, EJ-28, 72 h, EJ28, bladder): > 50 µM
IC50 ([2]; Homo sapiens, Granta-519, 72 h, GRANTA-519, hematological): 1.61 µM
IC50 ([2]; Homo sapiens, HCT-15, 72 h, HCT15, colon): 9.11 µM
IC50 ([2]; Homo sapiens, HCT-116, 72 h, HCT116, colon): 3.01 µM
IC50 ([2]; Homo sapiens, HEK293, 72 h, HEK293, kidney): > 50 µM
IC50 ([2]; Homo sapiens, HL-60, 72 h, HL-60, hematological): > 50 µM
IC50 ([2]; Homo sapiens, HT-29, 72 h, HT29, colon): > 50 µM
IC50 ([2]; Homo sapiens, HT-1080, 72 h, HT1080, connective tissue): > 50 µM
IC50 ([2]; Homo sapiens, HeLa, endometrial): > 50 µM
IC50 ([2]; Homo sapiens, HepG2, 72 h, HEPG2, liver): > 50 µM
IC50 ([2]; Homo sapiens, Hs-578T, HS578T, breast): > 50 µM
IC50 ([2]; Homo sapiens, IGROV-1, 72 h, IGROV1, ovary): > 50 µM
IC50 ([2]; Homo sapiens, IMR-90, 72 h, IMR90, lung): > 50 µM
IC50 ([2]; Homo sapiens, JEG-3, 72 h, JEG3, placenta): > 50 µM
IC50 ([2]; Homo sapiens, JIMT-1, 72 h, JIMT1, breast): > 50 µM
IC50 ([2]; Homo sapiens, K562, 72 h, K-562, hematological): > 50 µM
IC50 ([2]; Homo sapiens, Kasumi 1, 72 h, KASUMI-1, hematological): > 50 µM
IC50 ([2]; Homo sapiens, L-363, 72 h, L-363, hematological): > 50 µM
IC50 ([2]; Homo sapiens, LoVo, colon): > 50 µM
IC50 ([2]; Homo sapiens, MCF7, 72 h, MCF7, breast): > 50 µM
IC50 ([2]; Homo sapiens, MDA-MB-231, 72 h, MDAMB231, breast): 2.85 µM
IC50 ([2]; Homo sapiens, MDA-MB-435, 72 h, MDAMB435, skin): > 50 µM
IC50 ([2]; Homo sapiens, MDA-MB-436, 72 h, MDAMB436, breast): > 50 µM
IC50 ([2]; Homo sapiens, MDA-MB-468, 72 h, MDAMB468, breast): > 50 µM
IC50 ([2]; Homo sapiens, MG-63, 72 h, MG63, bone): > 50 µM
IC50 ([2]; Homo sapiens, MHH-ES-1, 72 h, MHHES1, bone): > 50 µM
IC50 ([2]; Homo sapiens, MIA PaCa-2, 72 h, MIAPACA2, pancreas): > 50 µM
IC50 ([2]; Homo sapiens, MINO, hematological): 1.3 µM
IC50 ([2]; Homo sapiens, MV4-11, 72 h, MV4-11, hematological): 4.39 µM
IC50 ([2]; Homo sapiens, NCI-H23, 72 h, NCI-H23, lung): > 50 µM
IC50 ([2]; Homo sapiens, NCI-H82, 72 h, NCIH82, lung): > 50 µM
IC50 ([2]; Homo sapiens, NCI-H292, 72 h, NCIH292, lung): 4.62 µM
IC50 ([2]; Homo sapiens, NCI-H460, 72 h, NCIH460, ung): 4.01 µM
IC50 ([2]; Homo sapiens, OVCAR-3, 72 h, OVCAR3, ovary): > 50 µM
IC50 ([2]; Homo sapiens, OVCAR-4, 72 h, OVCAR4, ovary): > 50 µM
IC50 ([2]; Homo sapiens, PANC-1, 72 h, PANC1, pancreas): > 50 µM
IC50 ([2]; Homo sapiens, PLC-PRF-5, 72 h, PLCPRF5, liver): > 50 µM
IC50 ([2]; Homo sapiens, Panc1005, 72 h, PANC1005, pancreas): > 50 µM
IC50 ([2]; Homo sapiens, Ramos, hematological): 1.72 µM
IC50 ([2]; Homo sapiens, SAOS-2, 72 h, SAOS2, bone): > 50 µM
IC50 ([2]; Homo sapiens, SF-268, 72 h, SF268, brain): > 50 µM
IC50 ([2]; Homo sapiens, SF-295, 72 h, SF295, brain): > 50 µM
IC50 ([2]; Homo sapiens, SK-BR-3, 72 h, SKBR3, breast): > 50 µM
IC50 ([2]; Homo sapiens, SK-HEP1, 72 h, SKHEP1, liver): > 50 µM
IC50 ([2]; Homo sapiens, SK-LMS-1, 72 h, SKLMS1, uterus): > 50 µM
IC50 ([2]; Homo sapiens, SK-MEL-5, 72 h, SKMEL5, skin): > 50 µM
IC50 ([2]; Homo sapiens, SK-MEL-28, 72 h, SKMEL28, skin): > 50 µM
IC50 ([2]; Homo sapiens, SK-N-AS, SKNAS, brain): > 50 µM
IC50 ([2]; Homo sapiens, SK-N-SH, SKNSH, brain): > 50 µM
IC50 ([2]; Homo sapiens, SK-OV-3, 72 h, SKOV3, ovary): > 50 µM
IC50 ([2]; Homo sapiens, SNB-75, 72 h, SNB75, brain): > 50 µM
IC50 ([2]; Homo sapiens, SU-DHL10, 72 h, SU-DHL-10, hematological): > 50 µM
IC50 ([2]; Homo sapiens, SU-DHL-6, 72 h, SU-DHL-6, hematological): 3.8 µM
IC50 ([2]; Homo sapiens, SW-620, 72 h, SW620, colon): > 50 µM
IC50 ([2]; Homo sapiens, TE-671, 72 h, TE671, muscle): > 50 µM
IC50 ([2]; Homo sapiens, THP-1, 72 h, THP-1, hematological): > 50 µM
IC50 ([2]; Homo sapiens, U2OS, bone): > 50 µM
IC50 ([2]; Homo sapiens, U-87 MG, U87MG, brain): > 50 µM
IC50 ([2]; Homo sapiens, UMUC3, 72 h, UMUC3, bladder): > 50 µM
IC50 ([2]; Homo sapiens, UO-31, 72 h, UO31, kidney): 9.45 µM
IC50 ([2]; Homo sapiens, WSU-NHL, hematological): 2.82 µM
IC50 ([2]; NCI-H358M, NCIH358M, lung): 1.49 µM
IC50 ([2]; PBMC, hematological): 11.8 µM
IC50 ([2]; RD-ES, RDES, bone): > 50 µM
